Values quoted from earlier work as cited in PMC8819907 (Journal of Experimental & Clinical Cancer Research : CR, 2022).

Key:
KRAS-mutant NSCLC = system: KRAS-mutant NSCLC; set-up: method as in ref 24 (a number printed in a supplementary file, which may have a reference list of its own: not looked up in the article's list); conditions: cited from earlier work
[1] = only detectable minor component in blood; cited from earlier work
[2] = system: patients with advanced solid tumors; set-up: method as in ref 27 (a number printed in a supplementary file, which may have a reference list of its own: not looked up in the article's list); conditions: cited from earlier work
[3] = system: recurrent low-grade serous carcinoma of the ovary or peritoneum; set-up: method as in ref 33,34 (a number printed in a supplementary file, which may have a reference list of its own: not looked up in the article's list); conditions: 8/52 patients; cited from earlier work
[4] = system: metastatic biliary tract cancers; set-up: method as in ref 33,34 (a number printed in a supplementary file, which may have a reference list of its own: not looked up in the article's list); conditions: 3/25 response evaluable patients; cited from earlier work
[5] = set-up: method as in PMID 32696585; conditions: cited from earlier work

CC(=O)O[C@@]12CO[C@@H]1C[C@H](O)[C@@]1(C)C(=O)[C@H](O)C3=C(C)[C@@H](OC(=O)[C@H](O)[C@@H](NC(=O)OC(C)(C)C)c4ccccc4)C[C@@](O)([C@@H](OC(=O)c4ccccc4)[C@H]21)C3(C)C [docetaxel]
median PFS (KRAS-mutant NSCLC): 11.4 weeks | overall response rate (ORR) (KRAS-mutant NSCLC): 12%

Cc1c(=O)n(C)c(Nc2ccc(I)cc2F)c2c(=O)n(C3CC3)c(=O)n(-c3cccc(N)c3)c12 [M5]
share of the blood radioactivity [1]: < 7%

Cn1ncc(Cl)c1-c1cc(C(=O)N[C@H](CN)Cc2ccc(F)c(F)c2)oc1Cl [GSK2141795]
RP2D for single agent [2]: 75 mg/day

Cn1cnc2c(F)c(Nc3ccc(Br)cc3Cl)c(C(=O)NOCCO)cc21 [selumetinib]
overall response rate [3]: 15% | overall response rate [4]: 12%

O=C(c1ccc(F)c(F)c1Nc1ccc(I)cc1F)N1CC(O)([C@@H]2CCCCN2)C1 [cobimetinib]
total AUC0−∞ lower, severe hepatic impairment vs normal hepatic function [5]: ~30% | unbound AUC0−∞ higher, severe hepatic impairment vs normal hepatic function [5]: ~2 fold
